Take `CC(C)(C)OC(=O)NCC1CCN(CC2(C(=O)O)CCC2)CC1`: the melting point is 160 °C.
In the case of `CN(C)C(=O)CCCOC(=O)C(C)(OCc1ccc2ccccc2c1)C(F)(F)F` (stereo not given) it was 42 to 43 °C.
Then `CCCCOc1ccc(S(=O)(=O)C2(C(=O)NO)CCN(Cc3ccccn3)CC2)cc1`, with 118 °C; and `O=C1CCNc2c1cc(Cl)cc2[N+](=O)[O-]`, with 132 to 135 °C; and `CC(C)(C)OC(=O)Nc1cc(OC(C)(C)C)c(-c2ccccc2F)cc1N`, with 130 °C.
For the molecule `CCCCNCP(=O)(O)O`, the melting point lay in the range of 236 to 240 °C.
Molecule `CNC(=O)Oc1ccc(CN2CCN(c3ccc(C(C)=O)cc3)CC2)cc1OC` came in with a melting point of 120 to 123 °C.
`CCOC(=O)C1(c2cccc(OCc3ccc4c(ccc(=O)n4C)c3)c2)CCOCC1` returned a melting point of 109 to 110 °C.
Then `Cc1ccc(S(=O)(=O)OCC2CCC=CO2)cc1` (stereo not given), with 45 to 46 °C; and `COc1cc(Nc2nccc(-c3ccc[nH]3)n2)cc(OC)c1OC`, with 150 °C; and `Cc1ccc(N2C(=O)C(O)=C(C(=O)c3ccc(OC(F)(F)F)cc3)C2c2ccc(Cn3nccn3)cc2)nn1` (stereo not given), with 277 °C.
In the case of `COc1cc2nc(Cl)n3cnnc3c2cc1OC` it was 269 to 271 °C; in that of `C[C@H](Cc1c[nH]c2c(OCc3ccccc3)cccc12)NC(=O)OC(C)(C)C`, 94 to 95 °C.
Turning to `Nc1cc(Cl)nc(SC/C=C/C(=O)N2CCCC2)n1`, the melting point lay in the range of 178 to 180 °C.
In the case of `CCOC(=O)Cn1c(=O)n(-c2ccccc2Cl)c(=O)c2c(C)c(C(=O)OCC)c(C)cc21` it was 158 to 159 °C; in that of `COc1ccccc1N1CCN(CCN(C(=O)C2CCCCC2)c2ccccc2N)CC1`, 138 to 140 °C.
On to `Cc1ccc(C2=NNC(=O)CC2)c(O)c1`, for which the melting point lay within 210 to 211 °C.
Then `CCN1CCc2ccc(Nc3ncc(Cl)c(N[C@@H]4CCCC[C@H]4NC(=O)C(F)(F)F)n3)cc2CC1`, with 165 °C.
`O=C(c1c[nH]c2cc(OCc3ccc(F)cc3)ccc12)C1CSC(c2cccnc2)N1` (stereo not given) registered a melting point of 185 to 186 °C.
Then `Cc1c(CC(=O)O)c2c(F)c(O)ccc2n1C(=O)c1ccc(Cl)cc1`, with 187 to 189 °C.
In the case of `CC(=NO)c1ccc(OCC(O)(Cn2cncn2)C(C)(C)C)cc1` (stereo not given) it was 129 to 132 °C; in that of `CCOC(=O)COc1ccccc1-c1nc2n(C3CCCC3)[nH]c(CC)c-2c(=O)n1`, 116 to 117 °C.
In the case of `Cc1ccc2c(c1)N(CC(=O)c1ccccc1C)C(=O)C(NC(=O)Nc1ccc(Cl)c(C(=O)O)c1)CN2C(=O)C(C)(C)C` (stereo not given) it was 178 to 180 °C.
Turning to `N#CC1CN1C(=O)NC(=O)c1cc2ccccc2o1` (stereo not given), the melting point was in the range of 190 to 192 °C.
Then `COc1ccc(C2(C#Cc3ccccc3)CCCC(=O)C2)cc1OC1CCCC1` (stereo not given), with 90 to 91 °C.
`COc1ccc(C(=O)Nc2ccc(C(C)(C)C#N)cc2)c(Cl)c1OC` returned a melting point of 195 to 198 °C.
In the case of `CN(CC(=O)c1ccc(N(C)C)cc1)Cc1cc2c(=O)c(C(=O)NCc3ccc(Cl)cc3)cn(C)c2s1` it was 162 °C; in that of `COC(=O)c1c(S(N)(=O)=O)ccn1C`, 105 to 107 °C; in that of `O=C1NC(=S)SC1=Cc1ccc2c(c1)N(Cc1cccc(-c3ccncc3)c1)C(=O)CO2`, 297 to 299 °C.
Then `CNC1CN(c2cc3c(cc2F)c(=O)c(C(=O)O)cn3C2CC2)C1`, with 245 to 249 °C; and `O=C(CN1CCOCC1)Nc1cccc2nc(N[C@@H]3CCc4ccccc43)ccc12`, with 179 °C.
In the case of `COc1ccc(-c2nnsc2-c2ccc(OC)cc2)cc1` it was 80 to 82 °C; in that of `Cc1c(C)c2c(c(C)c1N)C(c1ccccc1)C(C)(C)O2` (stereo not given), 131 to 132 °C; in that of `CC(C)OCC(O)COc1ccc(/C=C/C(=O)O)c(Oc2ncc(C(F)(F)F)cc2Cl)c1` (stereo not given), 92 to 93 °C.
In turn, `Cc1ccc(O)c(C(OC2CCN(C)CC2)c2nc3ccccc3[nH]2)c1` (stereo not given) registered a melting point of 151 °C.
In the case of `COC1=CC(=O)C2=C(C1=O)C(Cl)C(Cl)CC2` (stereo not given) it was 119 to 123 °C; in that of `c1ccc(-n2c(-c3ccc(-c4ccc(-c5nc6c7ccccc7c7ccccc7c6n5-c5ccccc5)cc4)cc3)nc3c4ccccc4c4ccccc4c32)cc1`, 402 °C; in that of `Cc1cc(Cl)ccc1Br`, 91 to 95 °C.
Then `CC(C)[C@H](NC(=O)OCc1ccccc1)C(=O)N[C@H](C=O)Cc1ccc(OCc2ccccc2)cc1`, with 160 to 162 °C; and `CCc1cccc(CC(=O)O)c1OCCCc1cn(-c2ccc(Br)cn2)nc1C(CC)CC`, with 123 °C; and `COc1ccc(C(=O)Nc2ccc(C(C)(C)CNC(=O)c3nc4ccc(F)cc4[nH]3)cc2)cc1OC`, with 222 to 224 °C.
With `N#Cc1ccc(N2C(=O)N(CC#CCO)C(CF)(CF)C2=O)cc1C(F)(F)F`, the melting point was 131 to 132 °C.
In the case of `CCOCc1nc2c(N)nc3cc(-c4cn[nH]c4)ccc3c2n1CC(C)(C)O` it was over 250 °C; in that of `O=C1CCC(N2Cc3cc(CNC(=O)Nc4ccc(F)cc4)ccc3C2=O)C(=O)N1` (stereo not given), 262 to 264 °C.
The molecule `O=C(c1ccccc1)N1CCC(COc2ccccc2)CC1` displayed a melting point of 95 to 96 °C.
Then `CCC(=S)C1=C(C)NC2=C(C(=O)c3ccccc32)C1c1ccccc1` (stereo not given), with 248 to 249 °C; and `CC#CCOc1ccc(S(=O)(=O)NC2(C(=O)NO)CCCC2)cc1`, with 66 to 68 °C; and `CN(C(=O)COc1cc(C(F)(F)C(F)(F)F)no1)c1ccccc1`, with 88 to 89 °C.
Then `CCCc1c(OCCCOc2ccc(C(=O)CCC(=O)O)c(Cl)c2Cl)ccc(C(C)=O)c1O`, with 119 to 123 °C; and `O=c1c2ccccc2ncn1C1CCN(CCCc2ccccc2)CC1`, with 107 to 108 °C.
Then `O=C1c2ccccc2COc2cc(Cl)ccc21`, with 105 to 106 °C; and `COC(=O)c1c(-c2ccc(C)cc2)c2cc(OCc3ccccc3)ccc2c(=O)n1CC(C)C`, with 142 to 143 °C; and `CC1=Nc2c3ccccc3nc(=O)n2C1C` (stereo not given), with 234 to 237 °C.
`CC1(C)NC(=O)N(CC(CS(=O)(=O)C2(C(F)(F)F)C=CC(c3ccccc3)=CC2)N(O)C=O)C1=O` (stereo not given) displayed a melting point of 206 °C.
Then `CC(=O)c1cnn2ccccc12`, with 96 to 97 °C.
In the case of `COCCOc1ccc([N+](=O)[O-])cc1[N+](=O)[O-]` it was 31 to 33 °C; in that of `CC(C)(O)CCNC(=O)c1n[nH]cc1NC(=O)c1ccccn1`, 193 to 194 °C.
On to `CCOC(=O)C(=O)Nc1c([N+](=O)[O-])sc2cc(OC)ccc12`, for which the melting point fell in the range of 195 to 196 °C.
As to `CC1CCCN1CC=CC(=O)Nc1cc2c(Nc3ccc(F)c(Cl)c3)ncnc2cc1OCC1CC1` (stereo not given), the melting point was 108 to 110 °C.
In the case of `Cc1cc(-n2ccnc2)c2cccc(OCc3c(Cl)ccc(S(=O)(=O)N4CCC[C@H]4C(=O)N4CCOCC4)c3Cl)c2n1` it was 50 °C; in that of `COP(=O)(Cc1ccc2ccccc2c1)OC`, 80 to 81 °C.
In the case of `O=[N+]([O-])c1ccc(CSc2cc(Cl)nc3c2ncn3C2OC(CO)C(O)C2O)cc1` (stereo not given) it was 162 to 165 °C; in that of `CCOC(=O)C1=C(COCc2nnc(C)s2)NC(C)=C(C(=O)OC)C1c1cccc(Cl)c1Cl` (stereo not given), 140 to 144 °C; in that of `CCCCOCCOc1ccc(-c2ccc(N3CCCC3)c(C(C)=CC(=O)OCC)c2)cc1`, 81 to 82 °C.
In the case of `COC(=O)c1[nH]c(C)c(C)c1OCC1CO1` (stereo not given) it was 85 to 87 °C.
Regarding `O=C(O)CCCCc1cc2nc(Cl)ccc2n1S(=O)(=O)c1ccccc1`, the melting point stood at 113 °C.
In the case of `Nc1cccc(-c2nc3sccn3c2-c2ccnc(N[C@@H]3CCCN(S(=O)(=O)c4ccc(Cl)cc4)C3)n2)c1`, the melting point lay within 226 to 228 °C.
In the case of `COC1=CC(C=O)(NC(c2ccccc2)(c2ccccc2)c2ccccc2)NC=C1` (stereo not given) it was 172 °C; in that of `CC(=O)COc1cc2c3ccccc3n(Cc3ccccc3)c2cn1`, 141 to 142 °C; in that of `CC(c1cc(F)cc(Br)c1O)c1cc(Cl)cc(C(C)c2cc(F)cc(Br)c2O)c1O` (stereo not given), 136 °C.
Then `C=CCN1Cc2cnc(C)n2-c2ccc(Cl)cc2C1c1ccccc1F` (stereo not given), with 140 to 145 °C.
Take `O=C1Nc2cc(-c3ccc(C(F)(F)F)cc3)ccc2C1c1cc(Cl)ccc1O` (stereo not given): the melting point was in the range of 221 to 225 °C.
The molecule `Cc1nc(N)nc(N)c1C#CC(C)(C)c1ccc(C(F)(F)F)cc1` gave a melting point of 153 to 157 °C.
In the case of `CN(Cc1ccccc1)c1nccc2ccccc12` it was 53.5 to 54.5 °C; in that of `O=C(c1ccc(O)cc1)c1c(-c2ccc(O)cc2)sc2ccccc12`, 90 °C.
`N#Cc1ccc(Nn2cnnc2)cc1-c1ccc(C(F)(F)F)cc1` returned a melting point of 140 to 143 °C.
Then `O=C1CCN(Cc2ccccc2O)CC1C(c1ccccc1)c1ccccc1` (stereo not given), with 109 to 110 °C; and `COc1ccc2c(c1)c(CC(=O)O)c(C)n2C(=O)c1ccccc1`, with 158 to 160 °C; and `CCOC(=O)c1nocc1Cn1nnnc1-c1cccc(Cl)c1Cl`, with 161 to 163 °C.
Take `COc1cc2cc3c(Nc4ccc(Sc5nccn5C)c(Cl)c4)c(C#N)cnc3cc2cc1OCCCCl`: the melting point was over 300 °C.
`CC(C)C1(C)NC(c2nccc(O)c2C(=O)O)=NC1=O` (stereo not given) returned a melting point of 210 to 211 °C.
In the case of `CCCCc1nnc2c(Cl)nc3ccccc3n12` it was 144 to 146 °C; in that of `CCOC(=O)CCc1cn(Cc2ccc(OC)c(OCc3nc(-c4ccccc4)oc3C)c2)nc1OCC`, 109 to 110 °C.
For `N#Cc1cc(-c2ncccc2C(=O)O)ccc1OCCc1ccccc1[N+](=O)[O-]`, the melting point was 216 to 217 °C.
In the case of `Cc1cc(F)c(NS(=O)(=O)c2ccccc2)cc1NS(=O)(=O)c1ccccc1` it was 146 °C.

The values above are taken from a melting point compilation (Tetko et al.; mined from patent text by program, amines drawn as free bases though some values may be those of a salt).
